Results on 44 molecules are retold here after patent publication EP4714938A1, “HDAC1/2 SELECTIVE INHIBITOR AND USE THEREOF” (Wigen Biomedicine Technology (Shanghai) Co., Ltd., priority 2023, dated 2024).

Like-named read-outs stand apart in the source and are kept apart here. Some results are limits rather than exact numbers.

The IC50 is the midpoint of a concentration-inhibition curve.

Holding throughout (assay): HDAC enzyme inhibitory activity, FRET method
Holding throughout (type): biochemical

The target in assay [1] is HDAC1 (Homo sapiens, UniProt Q13547). The following applies: read-out: IC50 HDAC1.
Assay [2] deals with HDAC3 (Homo sapiens, UniProt O15379). The following applies: read-out: IC50 HDAC3.
Assay [3] addresses HDAC2 (Homo sapiens, UniProt Q92769). As to conditions: read-out: IC50 HDAC2.

HDAC2, sequence (Q92769 whole entry, species assumed): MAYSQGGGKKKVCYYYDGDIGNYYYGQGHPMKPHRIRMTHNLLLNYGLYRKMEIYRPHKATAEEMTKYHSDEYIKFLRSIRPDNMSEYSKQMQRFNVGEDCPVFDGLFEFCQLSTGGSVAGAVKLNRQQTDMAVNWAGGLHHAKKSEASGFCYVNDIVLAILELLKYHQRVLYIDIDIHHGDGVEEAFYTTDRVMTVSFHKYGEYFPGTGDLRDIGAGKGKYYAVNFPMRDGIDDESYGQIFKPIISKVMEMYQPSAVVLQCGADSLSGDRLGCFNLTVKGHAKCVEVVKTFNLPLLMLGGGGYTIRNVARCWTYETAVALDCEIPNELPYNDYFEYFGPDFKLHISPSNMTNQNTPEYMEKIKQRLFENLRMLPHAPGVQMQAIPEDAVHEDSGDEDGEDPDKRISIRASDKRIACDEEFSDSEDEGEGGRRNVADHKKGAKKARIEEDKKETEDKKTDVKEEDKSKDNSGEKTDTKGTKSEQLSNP
HDAC3, sequence (O15379 whole entry, species assumed): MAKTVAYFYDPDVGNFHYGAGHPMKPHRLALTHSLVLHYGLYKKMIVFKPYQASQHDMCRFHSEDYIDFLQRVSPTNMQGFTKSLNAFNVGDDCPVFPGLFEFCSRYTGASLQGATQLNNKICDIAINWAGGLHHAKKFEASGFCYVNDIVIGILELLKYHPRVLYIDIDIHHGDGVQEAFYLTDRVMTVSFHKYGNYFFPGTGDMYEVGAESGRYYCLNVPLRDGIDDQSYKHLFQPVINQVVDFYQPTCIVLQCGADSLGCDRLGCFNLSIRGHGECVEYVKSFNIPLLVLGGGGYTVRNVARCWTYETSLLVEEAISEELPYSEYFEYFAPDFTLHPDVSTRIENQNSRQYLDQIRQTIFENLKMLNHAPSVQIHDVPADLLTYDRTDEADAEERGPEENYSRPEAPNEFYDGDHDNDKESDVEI
HDAC3, sequence (Q9Y618 395-489 partner limits assumed, species assumed): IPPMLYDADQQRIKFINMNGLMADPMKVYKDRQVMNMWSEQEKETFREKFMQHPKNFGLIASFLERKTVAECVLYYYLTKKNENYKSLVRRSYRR
HDAC1, sequence (Q13547 whole entry, species assumed): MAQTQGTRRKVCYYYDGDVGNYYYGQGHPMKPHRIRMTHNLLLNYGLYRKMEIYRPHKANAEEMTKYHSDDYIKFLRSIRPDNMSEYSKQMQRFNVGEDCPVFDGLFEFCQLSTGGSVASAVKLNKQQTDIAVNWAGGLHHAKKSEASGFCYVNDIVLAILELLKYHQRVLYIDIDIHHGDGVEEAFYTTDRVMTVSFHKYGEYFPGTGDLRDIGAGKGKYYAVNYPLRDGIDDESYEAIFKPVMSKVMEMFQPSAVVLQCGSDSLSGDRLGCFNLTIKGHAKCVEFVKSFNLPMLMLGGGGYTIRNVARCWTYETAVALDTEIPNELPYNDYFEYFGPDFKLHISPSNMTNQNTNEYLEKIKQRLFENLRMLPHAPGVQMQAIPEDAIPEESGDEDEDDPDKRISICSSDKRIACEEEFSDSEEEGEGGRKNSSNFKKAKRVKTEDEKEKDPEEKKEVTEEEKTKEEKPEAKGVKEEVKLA

Consider `CS(C)(=O)=Nc1ccc(C(=O)Nc2cc(-c3ccccc3)ccc2N)cc1` [Compound 2], for which the IC50 in assay [1] (Table 4) is less than 500 nM; in assay [2] (Table 4), more than 5000 nM; in assay [3] (Table 4), less than 500 nM.
Take `CS(C)(=O)=Nc1ccc(C(=O)Nc2cc(-c3ccc(C#N)cc3)ccc2N)cc1` [Compound 4]: the IC50 was less than 500 nM in assay [1] (Table 4), more than 5000 nM in assay [2] (Table 4) and less than 500 nM in assay [3] (Table 4).
For `COC(=O)c1ccc(-c2ccc(N)c(NC(=O)c3ccc(N=S(C)(C)=O)cc3)c2)cc1` [Compound 5], the half-inhibitory concentration (IC50) in assay [1] (Table 4) was less than 500 nM; in assay [2] (Table 4), more than 5000 nM; in assay [3] (Table 4), 500 to 5000 nM.
In the case of `CP(C)(=O)c1ccc(-c2ccc(N)c(NC(=O)c3ccc(N=S(C)(C)=O)cc3)c2)cc1` [Compound 6], the concentration for half-maximal inhibition (IC50) is 500 to 5000 nM in assay [1] (Table 4), more than 5000 nM in assay [2] (Table 4) and 500 to 5000 nM in assay [3] (Table 4).
As to `CS(C)(=O)=Nc1ccc(C(=O)Nc2cc(-c3ccc(C(F)(F)F)cc3)ccc2N)cc1` [Compound 7], the half-inhibitory concentration (IC50) was less than 500 nM in assay [1] (Table 4), more than 5000 nM in assay [2] (Table 4) and less than 500 nM in assay [3] (Table 4).
`CS(C)(=O)=Nc1ccc(C(=O)Nc2cc(-c3ccc(C4CC4)cc3)ccc2N)cc1` [Compound 8]: the IC50 in assay [1] (Table 4) is 500 to 5000 nM; in assay [2] (Table 4), more than 5000 nM; in assay [3] (Table 4), 500 to 5000 nM.
For `COc1ccc(-c2ccc(N)c(NC(=O)c3ccc(N=S(C)(C)=O)cc3)c2)cc1` [Compound 9], the results for the IC50 in assay [1] (Table 4), in assay [2] (Table 4) and in assay [3] (Table 4) were less than 500 nM, more than 5000 nM and less than 500 nM, respectively.
Take `CS(C)(=O)=Nc1ccc(C(=O)Nc2cc(-c3ccc(F)cc3F)ccc2N)cc1` [Compound 10]: the concentration for half-maximal inhibition (IC50) is less than 500 nM in assay [1] (Table 4), more than 5000 nM in assay [2] (Table 4) and less than 500 nM in assay [3] (Table 4).
Take `CNC(=O)c1ccc(-c2ccc(N)c(NC(=O)c3ccc(N=S(C)(C)=O)cc3)c2)cc1` [Compound 11]: the IC50 in assay [1] (Table 4) is less than 500 nM; in assay [2] (Table 4), more than 5000 nM; in assay [3] (Table 4), less than 500 nM.
On to `[2H]c1ccc(-c2ccc(N)c(NC(=O)c3ccc(N=S(C)(C)=O)cc3)c2)cc1` [Compound 12], for which the IC50 in assay [1] (Table 4) was less than 500 nM; in assay [2] (Table 4), more than 5000 nM; in assay [3] (Table 4), less than 500 nM.
Take `CS(C)(=O)=Nc1ccc(C(=O)Nc2cc(-c3ccncc3)ccc2N)cc1` [Compound 13]: the figures for the IC50 in assay [1] (Table 4), in assay [2] (Table 4) and in assay [3] (Table 4) were less than 500 nM, more than 5000 nM and less than 500 nM, respectively.
Turning to `CS(C)(=O)=Nc1ccc(C(=O)Nc2cc(-c3ccccn3)ccc2N)cc1` [Compound 14], the figures for the IC50 in assay [1] (Table 4), in assay [2] (Table 4) and in assay [3] (Table 4) were less than 500 nM, more than 5000 nM and less than 500 nM, respectively.
As for `CS(C)(=O)=Nc1ccc(C(=O)Nc2cc(-c3cccnc3)ccc2N)cc1` [Compound 15], the IC50 is less than 500 nM in assay [1] (Table 4), more than 5000 nM in assay [2] (Table 4) and less than 500 nM in assay [3] (Table 4).
As for `CS(C)(=O)=Nc1ccc(C(=O)Nc2cc(-c3ccncn3)ccc2N)cc1` [Compound 16], the IC50 in assay [1] (Table 4) was less than 500 nM; in assay [2] (Table 4), more than 5000 nM; in assay [3] (Table 4) it was less than 500 nM.
Consider `CS(C)(=O)=Nc1ccc(C(=O)Nc2cc(-c3cncnc3)ccc2N)cc1` [Compound 17], for which the half-inhibitory concentration (IC50) in assay [1] (Table 4) was less than 500 nM; in assay [2] (Table 4), more than 5000 nM; in assay [3] (Table 4), less than 500 nM.
Take `CS(C)(=O)=Nc1ccc(C(=O)Nc2cc(-c3ncccn3)ccc2N)cc1` [Compound 18]: the results for the concentration for half-maximal inhibition (IC50) in assay [1] (Table 4), in assay [2] (Table 4) and in assay [3] (Table 4) were less than 500 nM, more than 5000 nM and less than 500 nM, respectively.
With `CS(C)(=O)=Nc1ccc(C(=O)Nc2cc(-c3ccc(F)cn3)ccc2N)cc1` [Compound 19], the values for the IC50 in assay [1] (Table 4), in assay [2] (Table 4) and in assay [3] (Table 4) were less than 500 nM, more than 5000 nM and less than 500 nM, respectively.
In the case of `CS(C)(=O)=Nc1ccc(C(=O)Nc2cc(-c3ccco3)ccc2N)cc1` [Compound 20], the half-maximal inhibitory concentration (IC50) in assay [1] (Table 4) is less than 500 nM; in assay [2] (Table 4) it was more than 5000 nM; in assay [3] (Table 4) it was less than 500 nM.
As for `CS(C)(=O)=Nc1ccc(C(=O)Nc2cc(-c3ccc(F)cc3)ccc2O)cc1` [Compound 41], the IC50 in assay [1] (Table 4) was less than 500 nM; in assay [2] (Table 4), more than 5000 nM; in assay [3] (Table 4), 500 to 5000 nM.
Taken in the same sequence, the figures for `CS(C)(=O)=Nc1ccc(C(=O)Nc2cc(-c3ccc(F)s3)ccc2O)cc1` [Compound 42] were less than 500 nM, more than 5000 nM and less than 500 nM.
As to `CS(C)(=O)=Nc1ccc(C(=O)Nc2cc(-c3ccc(F)cc3)c(F)cc2N)cc1` [Compound 43], the figures for the IC50 in assay [1] (Table 4), in assay [2] (Table 4) and in assay [3] (Table 4) were less than 500 nM, more than 5000 nM and less than 500 nM, respectively.
As to `CS(C)(=O)=Nc1ccc(C(=O)Nc2cc(-c3cccs3)c(F)cc2N)cc1` [Compound 44], the IC50 was less than 500 nM in assay [1] (Table 4), more than 5000 nM in assay [2] (Table 4) and less than 500 nM in assay [3] (Table 4).
As for `CS(C)(=O)=NC1CCC(C(=O)Nc2cc(-c3ccc(F)cc3)ccc2N)CC1` (stereo not drawn) [Compound 45], the IC50 in assay [1] (Table 4) was less than 500 nM; in assay [2] (Table 4), more than 5000 nM; in assay [3] (Table 4), less than 500 nM.
Consider `CS(C)(=O)=NC1CCC(C(=O)Nc2cc(-c3ccc(F)s3)ccc2N)CC1` (stereo not drawn) [Compound 47], for which the IC50 is less than 500 nM in assay [1] (Table 4), more than 5000 nM in assay [2] (Table 4) and less than 500 nM in assay [3] (Table 4).
Take `CS(C)(=O)=NC1CCC(C(=O)Nc2cc(-c3ccc(Cl)s3)ccc2N)CC1` (stereo not drawn) [Compound 48]: the IC50 in assay [1] (Table 4) is less than 500 nM; in assay [2] (Table 4), more than 5000 nM; in assay [3] (Table 4) it was less than 500 nM.
On to `Nc1ccc(-c2ccc(F)cc2)cc1NC(=O)c1ccc(N=S2(=O)CCC2)cc1` [Compound 53], for which the half-maximal inhibitory concentration (IC50) in assay [1] (Table 5) is less than 30 nM; in assay [2] (Table 5) it was more than 3000 nM; in assay [3] (Table 5), 30 to 300 nM.
The matching figures for `Nc1ccc(-c2ccc(F)cc2)cc1NC(=O)c1ccc(N=S2(=O)CC3(CCC3)C2)cc1` [Compound 54]: less than 30 nM, more than 3000 nM and 30 to 300 nM.
Regarding `Nc1ccc(-c2ccc(F)cc2)cc1NC(=O)c1ccc(N=S2(=O)CC3(CNC3)C2)cc1` [Compound 55], the values for the concentration for half-maximal inhibition (IC50) in assay [1] (Table 5), in assay [2] (Table 5) and in assay [3] (Table 5) were less than 30 nM, more than 3000 nM and 30 to 300 nM, respectively.
For the molecule `CN1CC2(C1)CS(=O)(=Nc1ccc(C(=O)Nc3cc(-c4ccc(F)cc4)ccc3N)cc1)C2` [Compound 56], the IC50 was less than 30 nM in assay [1] (Table 5), more than 3000 nM in assay [2] (Table 5) and 30 to 300 nM in assay [3] (Table 5).
The matching figures for `Nc1ccc(-c2ccc(F)cc2)cc1NC(=O)c1ccc(N=S2(=O)CCCCC2)cc1` [Compound 58]: less than 30 nM, more than 3000 nM and 30 to 300 nM.
The matching figures for `CCS(=O)(CC)=Nc1ccc(C(=O)Nc2cc(-c3ccc(F)cc3)ccc2N)cc1` [Compound 59]: less than 30 nM, more than 3000 nM and 30 to 300 nM.
Regarding `Nc1ccc(-c2ccc(F)cc2)cc1NC(=O)c1ccc(N=S2(=O)CCOCC2)cc1` [Compound 60], the figures for the IC50 in assay [1] (Table 5), in assay [2] (Table 5) and in assay [3] (Table 5) were less than 30 nM, more than 3000 nM and 30 to 300 nM, respectively.
The matching figures for `Nc1ccc(-c2ccc(F)cc2)cc1NC(=O)c1ccc(N=S2(=O)CCC(F)(F)CC2)cc1` [Compound 63]: less than 30 nM, more than 3000 nM and 30 to 300 nM.
Take `Nc1ccc(-c2ccc(F)cc2)cc1NC(=O)c1ccc(N=S2(=O)CCC(F)(F)C2)cc1` (stereo not drawn) [Compound 65]: the IC50 is less than 30 nM in assay [1] (Table 5), more than 3000 nM in assay [2] (Table 5) and 30 to 300 nM in assay [3] (Table 5).
`[2H]C([2H])([2H])N1CCS(=O)(=Nc2ccc(C(=O)Nc3cc(-c4ccc(F)cc4)ccc3N)cc2)CC1` [Compound 68]: the IC50 in assay [1] (Table 4) is less than 500 nM; in assay [1] (Table 5) it was less than 30 nM; in assay [2] (Table 4), more than 5000 nM; in assay [2] (Table 5), more than 3000 nM; in assay [3] (Table 4), less than 500 nM; in assay [3] (Table 5), 30 to 300 nM.
With `CCN1CCS(=O)(=Nc2ccc(C(=O)Nc3cc(-c4ccc(F)cc4)ccc3N)cc2)CC1` [Compound 69], the values for the IC50 in assay [1] (Table 5), in assay [2] (Table 5) and in assay [3] (Table 5) were less than 30 nM, more than 3000 nM and 30 to 300 nM, respectively.
As to `Nc1ccc(-c2ccc(F)cc2)cc1NC(=O)c1ccc(N=S2(=O)CCN(CC3CC3)CC2)cc1` [Compound 71], the IC50 in assay [1] (Table 4) was less than 500 nM; in assay [2] (Table 4), more than 5000 nM; in assay [3] (Table 4), less than 500 nM.
Regarding `CN1CC2(CCS(=O)(=Nc3ccc(C(=O)Nc4cc(-c5ccc(F)cc5)ccc4N)cc3)CC2)C1` [Compound 72], the half-inhibitory concentration (IC50) in assay [1] (Table 4) was less than 500 nM; in assay [1] (Table 5), less than 30 nM; in assay [2] (Table 4), more than 5000 nM; in assay [2] (Table 5), more than 3000 nM; in assay [3] (Table 4), less than 500 nM; in assay [3] (Table 5), 30 to 300 nM.
For the molecule `Cc1nn(C)cc1CN1CCS(=O)(=Nc2ccc(C(=O)Nc3cc(-c4ccc(F)cc4)ccc3N)cc2)CC1` [Compound 73], the IC50 is less than 500 nM in assay [1] (Table 4); less than 30 nM in assay [1] (Table 5); more than 5000 nM in assay [2] (Table 4); more than 3000 nM in assay [2] (Table 5); less than 500 nM in assay [3] (Table 4); 30 to 300 nM in assay [3] (Table 5).
As for `CN1CC2(C1)CS(=O)(=Nc1ccc(C(=O)Nc3cc(-c4cccs4)ccc3N)cc1)C2` [Compound 79], the IC50 in assay [1] (Table 4) is less than 500 nM; in assay [2] (Table 4), more than 5000 nM; in assay [3] (Table 4), less than 500 nM.
As for `Nc1ccc(-c2cccs2)cc1NC(=O)c1ccc(N=S2(=O)CCCC2)cc1` [Compound 80], the IC50 was less than 500 nM in assay [1] (Table 4), more than 5000 nM in assay [2] (Table 4) and less than 500 nM in assay [3] (Table 4).
As to `CN1CCS(=O)(=Nc2ccc(C(=O)Nc3cc(-c4cccs4)ccc3N)cc2)CC1` [Compound 89], the results for the half-inhibitory concentration (IC50) in assay [1] (Table 4), in assay [2] (Table 4) and in assay [3] (Table 4) were less than 500 nM, more than 5000 nM and less than 500 nM, respectively.
With `[2H]C([2H])([2H])N1CCS(=O)(=Nc2ccc(C(=O)Nc3cc(-c4cccs4)ccc3N)cc2)CC1` [Compound 90], the IC50 was less than 500 nM in assay [1] (Table 4), more than 5000 nM in assay [2] (Table 4) and less than 500 nM in assay [3] (Table 4).
Consider `CN1CC2(CCS(=O)(=Nc3ccc(C(=O)Nc4cc(-c5cccs5)ccc4N)cc3)CC2)C1` [Compound 91], for which the IC50 is less than 500 nM in assay [1] (Table 4), more than 5000 nM in assay [2] (Table 4) and less than 500 nM in assay [3] (Table 4).
